Measured values: US20220168430A1, “THERAPEUTIC METHODS FOR TREATING HEPATITIS B” (priority 2019, published 2022)

Assays:
[1] = system: HBV DNA; assay: HBV DNA in culture supernatants of HBV-infected PHH by qPCR, single agents and double combinations (Examples 1-4); assay type: cell-based, HBV genotype D; primary human hepatocytes; conditions: Hepatitis B virus
Method: (§1) The day PHH seeding date was defined as day 0.
(§2) The PHH were infected with 400 HBV GE/cell of HBV genotype D type HBV on day 1.
(§3) The test articles were further diluted with the culture medium to the final test concentrations.
(§4) All the test articles were further diluted 100 times with the culture medium. The final concentration of DMSO in the culture medium was […].
(§5) The compounds were tested at 7 concentrations, 3-fold dilution, in triplicate.
(§6) Four two-way combinations were performed on a 5×5 matrix, in triplicate plates. Transfection reagent was present in all wells. The culture medium containing the articles were refreshed every 1 or 2 days.
DNA in the culture supernatants harvested on days 8 was isolated with QIAamp 96 DNA Blood Kit (Qiagen-51162). For each sample, 100 μl of each culture supernatant was used to extract DNA. The DNA was eluted with 180 μl of AE. HBV DNA in the culture supernatants was quantified by quatitative PCR using primers and probes outlined in Table 3. Percent inhibition of HBV DNA was calculated with the formula below:
% Inh. HBV DNA=[1−value of sample/AVG. value of Medium control]×100.
(§7) Results of double combination studies were analyzed using MacSynergy II software (Prichard and Shipman, 1992).

[2] = system: HBsAg; assay: microbe, parasite or virus in culture; assay type: cell-based, HBV genotype D; primary human hepatocytes; conditions: Hepatitis B virus
Method: as §1, §2, §3, §4, §5, §6
HBsAg in the culture supernatants harvested on days 8 was measured using the HBsAg/ELISA kit (Autobio) according to the manual. The samples were diluted with PBS to get the signal in the range of the standard curve. Percent inhibition of HBsAg was calculated with the formula below:
% Inh. HBsAg=[1−HBsAg quantity of sample/[…] of DMSO control]×100
as §7

[3] = system: HBsAg; assay: Liver HBsAg by ELISA in AAV-HBV mouse model (Example 18); assay type: in vivo, C57BL/6 mice; HBV serotype Ayw, genotype D; conditions: Study Day 42; siRNA 3 mg/kg s.c. Days 0 and 28, encapsidation inhibitor 100 mg/kg and/or TDF 1 mg/kg oral daily Days 0-41; group mean ± SEM, n=6
Method: Prior to treatment start, 1×10^11 viral genomes of an adeno-associated virus (AAV) vector carrying a 1.3-fold overlength copy of an HBV genome (serotype Ayw, genotype D) was administered to C57BL/6 mice via intravenous injection. Introduction of this viral vector results in the expression of HBV DNA and HBV surface antigen (HBsAg) amongst other HBV products. Serum HBV DNA levels in mice was measured using a quantitative polymerase chain reaction (QPCR) assay, HBsAg in serum and liver of mice was measured using an enzyme-linked immunosorbent assay (ELISA), and anti-HBsAg antibodies were measured using ELISA.
Treatment effects on serum HBV DNA were determined by collecting a small amount of blood on Days 0 (pre-treatment) and 14, as well as from terminal blood collections at Day 42. Treatment effects on HBsAg in serum and liver were determined from terminal sample collections at Day 42.
Any individual animal samples measured to fall below assay lower limit of quantitation (LLOQ) were reported as the LLOQ value.

[4] = system: HBsAg; assay: Serum HBsAg in pHBV1.3 hydrodynamic injection mouse model of HBV (Example 12); assay type: in vivo, NOD.CB17-Prkdc scid/J mice; HBV genotype D, serotype ayw; conditions: once daily oral from Day 0: RNA destabilizer 10 mg/kg, encapsidation inhibitor 100 mg/kg, nucleos(t)ide analog 0.4 mg/kg, group mean ± SEM, n=7 or 8, from negative control
Method: (§8) On Day −7, 10 micrograms of the plasmid pHBV1.3 (constructed based on details provided in Guidotti, L., et al., Journal of Virology, 1995, 69(10): 6158-6169) was administered to NOD.CB 17-Prkdc^scid/J mice via hydrodynamic injection (HDI; rapid 1.6 mL injection into the tail vein). […] As readouts of the anti-HBV effect of the treatments, serum HBV DNA and serum HBsAg were assessed. Serum HBV DNA concentration in mice was measured using a quantitative PCR assay following total DNA extraction using previously published primers and probe sequences (Tanaka, Y., et al., Journal of Medical Virology, 2004, 72: 223-229). Serum HBsAg concentration in mice was measured using a commercially available ELISA kit (HBsAg EIA 3.0 480 Test Kit, Bio-Rad).
(§9) Animals were treated with RNA destabilizer as follows: Starting on Day 0, a 10 mg/kg dosage of RNA destabilizer was administered orally to animals on a once-daily frequency for a total of seven doses across the duration of the study. Animals were treated with encapsidation inhibitor as follows: Starting on Day 0, a 100 mg/kg dosage of encapsidation inhibitor was administered orally to animals on a once-daily frequency for a total of seven doses across the duration of the study. Animals were treated with nucleos(t)ide analog as follows: Starting on Day 0, a 0.4 mg/kg dosage of nucleos(t)ide analog was administered orally to animals on a once-daily frequency for a total of seven doses across the duration of the study. The RNA destabilizer, the encapsidation inhibitor, and nucleos(t)ide analog were each dissolved in the same co-solvent formulation for administration and negative control animals were administered the co-solvent formulation alone. To calculate treatment-specific effects, the treated groups are compared against negative control (vehicle treated) animals.
(§10) The effect of these treatments was determined by collecting blood on Days −1 (prior to study's treatment phase), 4, and 7 and analyzing it for serum HBV DNA and HBsAg content.

[5] = system: HBV DNA; assay: Serum HBV DNA in pHBV1.3 hydrodynamic injection mouse model of HBV (Example 12); assay type: in vivo, NOD.CB17-Prkdc scid/J mice; HBV genotype D, serotype ayw; conditions: once daily oral from Day 0: RNA destabilizer 10 mg/kg, encapsidation inhibitor 100 mg/kg, nucleos(t)ide analog 0.4 mg/kg, group mean ± SEM, n=7 or 8, from negative control
Method: as §8, §9, §10

Compound: CC(C)OC(=O)[C@H](C)N[P@](=O)(CO[C@H](C)Cn1cnc2c(N)ncnc21)Oc1ccccc1 [TAF, tenofovir alafenamide]
- EC50 [1]: 0.083 nM
- EC50 [2]: 4.12 nM

Compound: CC(C)OC(=O)OCOP(=O)(CO[C@H](C)Cn1cnc2c(N)ncnc21)OCOC(=O)OC(C)C.O=C(O)/C=C/C(=O)O [TDF, tenofovir disoproxil fumarate, reference compound]
- Liver HBsAg [3]: 1.77 ± 0.03 log10 IU/mg liver protein
- Serum HBsAg log reduction ([4]; Day 4): −0.01 ± 0.12 log
- Serum HBsAg log reduction ([4]; Day 7): 0.10 ± 0.07 log
- Serum HBV DNA log reduction ([5]; Day 4): 1.2 ± 0.2 log
- Serum HBV DNA log reduction ([5]; Day 7): 1.7 ± 0.1 log
